The record followed here is patent publication US12552748B2, “Pyridine (thio)amides as fungicidal compounds” (Bayer Aktiengesellschaft, priority 2020, dated 2026).

The structures appear in SMILES notation. Marks after values point to notes of the source that are not given here.

What is called chromatographic logP is a lipophilicity value derived from retention on a column.

This series can be described thus: physchem. In kind it is physicochemical. The essentials: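 Reversed-phase HPLC per EEC directive 79/831 Annex V.A8, calibrated with straight-chain alkan-2-ones (C3–C16) of known Log P via linear interpolation of retention times. Lambda-max from UV spectra 200–400 nm at chromatographic peaks.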
As for `Cc1ccc(C(F)CNC(=O)c2cc(C)ncc2Oc2cccc(C(F)(F)F)c2)c(Cl)c1` (racemic) [Compound I-263], the LogP is 4.08^[a]. On to `Cc1ccc(C(F)CNC(=O)c2cc(Cl)ncc2Oc2cccc(C(F)(F)F)c2)c(Cl)c1` (racemic) [Compound I-083], for which the LogP was 4.78^[a].

Take `Cc1ccc(CCNC(=O)c2cc(Cl)ncc2Oc2cccc(Br)c2F)c(C)c1` [Compound I-134]: the LogP is 4.78^[a]. On the same count and under the same terms, with `O=C(NCC(F)c1ccc(Cl)cc1Cl)c1cc(Cl)ncc1Oc1cccc(C(F)F)c1` (racemic) [Compound I-037] the figure was 4.40^[a]; with `CC(NC(=O)c1cc(Cl)ncc1Oc1cccc(C(F)(F)F)c1)c1cn(C)c2cc(Cl)ccc12` (stereo not shown) [Compound I-021], 4.68^[a]. Still for that read-out and setting: with `Cc1ccc(CCNC(=O)c2cc(Cl)ncc2Oc2cccc(S(C)(=O)=O)c2)c(C)c1` [Compound I-261] the figure was 3.38^[a]. On the same count and under the same terms, with `C#Cc1c(Cl)ncc(Oc2cccc(C(F)(F)F)c2)c1C(=O)NCC(F)(F)c1ccc(C)cc1C` [Compound I-179] the figure was 5.74^[a]. As for `Cc1ccc(CCNC(=O)c2cc(C(C)F)ncc2Oc2cccc(C(F)(F)F)c2)c(C)c1` (stereo not shown) [Compound I-114], the LogP is 4.62^[a]. Still for that read-out and setting: with `Cc1ccc(C(F)(F)CNC(=O)c2c(Oc3cccc(C4CC4)c3F)cnc(Cl)c2Cl)c(C)c1` [Compound I-153] the figure was 5.08^[a]; with `C[Si](C)(C)C#Cc1ccc(C(F)(F)CNC(=O)c2cc(Cl)ncc2Oc2cccc(C(F)F)c2)c(Cl)c1` [Compound I-198], 5.97^[a]. On to `Cc1ccc(CCNC(=O)c2cc(C(F)(F)F)ncc2Oc2cccc(C3CC3)c2F)c(C)c1` [Compound I-116], for which the LogP is 5.38^[a]. Still for that read-out and setting: with `Cc1ccc(C(F)(F)CNC(=O)c2cc(C3CC3)ncc2Oc2cccc(C3CC3)c2F)c(C)c1` [Compound I-246] the figure was 5.36^[a]; with `Cc1cccc(Oc2cnc(C)cc2C(=O)NCC(F)c2ccc(C)cc2Cl)c1` (racemic) [Compound I-056], 3.96^[a]. As to `O=C(NCCc1cccs1)c1cc(Cl)ncc1Oc1cccc(C(F)(F)F)c1` [Compound I-097], the LogP was 3.98^[a]. Same read-out and setting: with `CC(=O)c1ccc(C(F)(F)CNC(=O)c2cc(Cl)ncc2Oc2cccc(C(F)F)c2)c(Cl)c1` [Compound I-119] the figure was 3.81^[a]; with `C=Cc1ccc(C(F)(F)CNC(=O)c2cc(Cl)ncc2Oc2cccc(C(F)F)c2)c(Cl)c1` [Compound I-123], 4.47^[a]. On the same count and under the same terms, for `O=C(O)c1cc(Cl)ncc1Oc1cccc(C2CC2)c1` [Compound 1-010] the value was 2.87^[a]; for `Cc1ccc(C(F)(F)CNC(=O)c2cc(C)ncc2Oc2cccc(Cl)c2)c(C)c1` [Compound I-058], 4.13^[a]; for `O=C(NCCc1cccc2[nH]ccc12)c1cc(Cl)ncc1Oc1cccc(C(F)(F)F)c1` [Compound I-101], 3.71^[a]. On the same count and under the same terms, with `O=C(NCC(F)(F)c1ccc(C2CC2)cc1Cl)c1cc(Cl)ncc1Oc1cccc(C2CC2)c1` [Compound I-193] the figure was 5.45^[a]; with `Cc1ccc(CCNC(=O)c2cc(Cl)ncc2Oc2cccc(OC(F)(F)F)c2F)c(C)c1` [Compound I-229], 4.95^[a]; with `O=C(O)c1cc(Cl)ncc1Oc1cccc(C2CC2)c1F` [Compound 1-009], 2.97^[a]. Turning to `COCc1cccc(Oc2cnc(Cl)cc2C(=O)NCCc2ccc(C)cc2C)c1` [Compound I-157], the LogP was 4.33^[a].

For the molecule `CNc1ncc(Oc2cccc(C(F)(F)F)c2)c(C(=O)NCC(F)(F)c2ccc(C)cc2C)c1I` [Compound I-218], the LogP is 4.55^[a]. Turning to `Cc1ccc(CCNC(=O)c2cc(N3CCCC3)ncc2Oc2cccc(C(F)(F)F)c2)c(C)c1` [Compound I-088], the LogP was 4.26^[a].

As to `Cc1ccc(CCNC(=O)c2cc(Cl)ncc2Oc2ccccc2)c(C)c1` [Compound I-133], the LogP is 4.41^[a]. Same read-out and setting: for `Cc1ccc(CCNC(=O)c2cc(Cl)ncc2Oc2cccc(-n3ccc(C(F)(F)F)n3)c2)c(C)c1` [Compound I-159] the value was 5.03^[a]; for `Cc1cc(C(=O)NCC(F)c2ccc(Cl)cc2Cl)c(Oc2cccc(C(F)F)c2)cn1` (racemic) [Compound I-055], 3.78^[a]; for `O=C(NCC(F)c1ccc(Cl)cc1Cl)c1cc(Cl)nc(F)c1Oc1cccc(C(F)(F)F)c1` (racemic) [Compound I-091], 5.08^[a]. On the same count and under the same terms, for `Cc1ccc(CCNC(=O)c2cc(Cl)nc(Cl)c2Oc2cccc(C(F)(F)F)c2)c(Cl)c1` [Compound I-245] the value was 5.17^[a]; for `C[Si](C)(C)C#Cc1cc(C(=O)NCC(F)c2ccc(Cl)cc2Cl)c(Oc2cccc(C(F)(F)F)c2)cn1` (racemic) [Compound I-176], 6.01^[a].

Take `O=C(O)c1cc(Cl)ncc1Oc1cccc(Cl)c1` [Compound 1-005]: the LogP is 2.76^[a]. On the same count and under the same terms, with `O=C(NCC(F)c1ccc(Cl)cc1Cl)c1cc(Cl)ncc1Oc1cccc(Cl)c1` (racemic) [Compound I-035] the figure was 4.80^[a]; with `COc1cccc(Oc2cnc(Cl)cc2C(=O)NCC(F)(F)c2ccc(C)cc2Cl)c1` [Compound I-048], 3.67^[a].

Take `Cc1ccc(C(F)(F)CNC(=O)c2c(Oc3cccc(C(F)(F)F)c3)cnc(Oc3cccc(C(F)(F)F)c3)c2-n2cccn2)c(C)c1` [Compound I-169]: the LogP is 5.53^[a]. The same measure, in the same setting: with `O=C(NCCc1cnc(C(F)(F)F)nc1)c1cc(Cl)ncc1Oc1cccc(C(F)(F)F)c1` [Compound I-110] the figure was 3.57^[a]; with `Cc1ccc(C(F)(F)CNC(=O)c2cc(C3CC3)ncc2Oc2cccc(C3CC3)c2)c(C)c1` [Compound I-239], 5.41^[a]. Same read-out and setting: with `N#Cc1ccc(C(F)(F)CNC(=O)c2cc(Cl)ncc2Oc2cccc(C(F)F)c2)c(Cl)c1` [Compound I-156] the figure was 3.87^[a]. Still for that read-out and setting: with `Cc1ccc(C(F)(F)CNC(=O)c2cc(C)ncc2Oc2cccc(C3CC3)c2)c(Cl)c1` [Compound I-071] the figure was 4.39^[a]; with `Cc1ccc(CCNC(=O)c2cc(Cl)nc(C#N)c2Oc2cccc(C(F)(F)F)c2)c(C)c1` [Compound I-225], 4.58^[a]. On to `Cc1ccc(C(F)(F)CNC(=O)c2c(Oc3cccc(C(F)(F)F)c3)cnc(Cl)c2-c2ccccc2)c(C)c1` [Compound I-188], for which the LogP was 5.12^[a]. On the same count and under the same terms, for `Cc1cnn(CCNC(=O)c2cc(Cl)ncc2Oc2cccc(C(F)(F)F)c2)c1` [Compound I-096] the value was 3.14^[a]; for `Cc1ccc(C(F)(F)CNC(=O)c2cc(Cl)ncc2Oc2cccc(C(F)(F)F)c2I)c(C)c1` [Compound I-222], 5.08^[a].

As to `Cc1ccc(C(F)(F)CNC(=O)c2c(Oc3cccc(C(F)(F)F)c3)cnc(Cl)c2C2CC2)c(C)c1` [Compound I-149], the LogP is 5.04^[a]. On the same count and under the same terms, with `O=C(NCCc1ccc2c(c1)OCCO2)c1cc(Cl)ncc1Oc1cccc(C(F)(F)F)c1` [Compound I-105] the figure was 3.84^[a]. Still for that read-out and setting: with `Cc1ccc(C(F)(F)CNC(=O)c2cc(C)ncc2Oc2cccc(C(F)(F)F)c2)c(Cl)c1` [Compound I-033] the figure was 4.19^[a]; with `C=Cc1cc(C(=O)NCC(F)(F)c2ccc(C)cc2C)c(Oc2cccc(C3CC3)c2)cn1` [Compound I-072], 5.05^[a]. Same read-out and setting: with `Cc1cccc(Oc2cnc(Cl)cc2C(=O)NCC(F)(F)c2ccc(Br)cc2Cl)c1` [Compound I-145] the figure was 5.08^[a].

On to `CCc1cc(C(=O)NCC(F)c2ccc(F)cc2F)c(Oc2cccc(C(F)(F)F)c2)cn1` (stereo not shown) [Compound I-022], for which the LogP was 4.66^[a].

Take `Cc1ccc(CCNC(=O)c2cc(Cl)ncc2Oc2cnc3c(c2)CCC3)c(C)c1` [Compound I-227]: the LogP is 3.35^[a]. Same read-out and setting: with `C#Cc1ccc(C(F)(F)CNC(=O)c2cc(Cl)ncc2Oc2cccc(C(F)F)c2)c(Cl)c1` [Compound I-143] the figure was 4.32^[a]; with `COc1cccc(Oc2cnc(Cl)cc2C(=O)NCCc2ccc(C)cc2C)c1` [Compound I-252], 4.42^[a]; with `Cc1ccc(C(F)(F)CNC(=O)c2cc(Cl)ncc2Oc2cccc(C(F)F)c2)c(C)c1` [Compound I-038], 4.35^[a]. The same measure, in the same setting: for `N#Cc1nc(Cl)cc(C(=O)O)c1Oc1cccc(C(F)(F)F)c1` [Compound 1-016] the value was 2.40^[a]; for `Cc1ccc(CCNC(=O)c2cc(Cl)nc(Cl)c2Oc2cccc(C(F)(F)F)c2)c(C)c1` [Compound I-158], 5.14^[a]; for `C#Cc1cc(C(=O)NC(C)c2cn(C)c3cc(Cl)ccc23)c(Oc2cccc(C(F)(F)F)c2)cn1` (stereo not shown) [Compound I-031], 4.27^[a]. On the same count and under the same terms, for `C=Cc1c(Cl)ncc(Oc2cccc(C(F)(F)F)c2)c1C(=O)NCC(F)(F)c1ccc(C)cc1C` [Compound I-146] the value was 4.93^[a]. In the case of `O=C(O)c1cc(Cl)nc(F)c1Oc1cccc(C(F)(F)F)c1` [Compound 1-014, 6-chloro-2-fluoro-3-[3-(trifluoromethyl)phenoxy]pyridine-4-carboxylic acid], the chromatographic logP came to 2.95.

With `O=C(NCCc1ccc(C(F)(F)F)cn1)c1cc(Cl)ncc1Oc1cccc(C(F)(F)F)c1` [Compound I-107], the LogP is 3.91^[a]. Same read-out and setting: with `C=Cc1cccc(Oc2cnc(Cl)cc2C(=O)NCC(F)(F)c2ccc(C)cc2C)c1` [Compound I-155] the figure was 4.96^[a]; with `Cc1ccc(C(F)(F)CNC(=O)c2c(Oc3cccc(C(F)(F)F)c3)cnc(Cl)c2N2CCCC2)c(C)c1` [Compound I-230], 5.49^[a]; with `CCc1ccc(C(F)(F)CNC(=O)c2cc(CC)ncc2Oc2cccc(C3CC3)c2F)c(Cl)c1` [Compound I-187], 5.45^[a]. The same measure, in the same setting: with `C#Cc1cc(C(=O)NCCc2ccc(C)cc2C)c(Oc2cccc(C(F)(F)F)c2)cn1` [Compound I-191] the figure was 4.34^[a]. Still for that read-out and setting: with `Cc1ccc(CCNC(=O)c2cc(C3CCOC3)ncc2Oc2cccc(C(F)(F)F)c2)c(C)c1` (stereo not shown) [Compound I-121] the figure was 4.30^[a].
